# Source: patent publication US9562003B2, “Methods of using substituted tetracycline compounds to modulate RNA” (Paratek Pharmaceuticals, Inc., priority 2002, dated 2017)
# Legend:
# in vitro = type: cell-based; conditions: African green monkey (COS-1) and Chinese hamster (CHO-K1)
# Method: COS-1 and CHO-K1 cell suspensions were prepared, seeded into 96-well tissue culture treated black-walled microtiter plates (density determined by cell line), and incubated overnight at 37° C., in 5% CO2 and approximately 95% humidity. The following day, serial dilutions of drug were prepared under sterile conditions and transferred to cell plates. Cell/Drug plates were incubated under the above conditions for 24 hours. Following the incubation period, media/drug was aspirated and 50 μl of Resazurin (0.042 mg/ml in PBS w/Ca and Mg) was added. The plates were then incubated under the above conditions for 2 hours and then in the dark at room temperature for an additional 30 minutes. Fluorescence measurements were taken (excitation 535 nm, emission 590 nm). The IC50 (concentration of drug causing 50% growth inhibition) was then calculated.
# mRNAs in J774.2 cells = test: Affymetrix microarray: mRNAs up- or down-regulated by Compounds A and B in LPS-stimulated macrophages; type: cell-based, murine; conditions: 50 μg/ml compound + 100 ng/ml LPS, 24 hours, J774.2 only; for Numbers of mRNAs with levels significantly altered by both Compounds A and B, in the presence of LPS: Decreased: decreased at least 2-fold by both compounds; for Numbers of mRNAs with levels significantly altered by both Compounds A and B, in the presence of LPS: Increased: increased at least 2-fold by both compounds
# Method: (§1) Two murine macrophage cell lines were used: J774.2 (gift from Peter Lambert, Aston University, UK), and RAW 264.7 (ATCC item number TIB-71). Cells were harvested from nearly confluent culture flasks and seeded into 6 well plates at a density of 5×10^6 cells well^−1 in a volume of 3 ml Dulbecco's modified essential medium supplemented with 10% fetal calf serum. After 2 hours, cells were exposed to the following conditions:
# 5) 50 μg/ml Compound A+100 ng/ml LPS (J774 cells only)
# 6) 50 μg/ml Compound B+100 ng/ml LPS (J774 cells only)
# (§2) The tetracycline compounds were added 1.5 hours post seeding, thirty minutes before the addition of LPS. The plates were incubated at 37° C. at 5% CO2 in a humidified incubator.
# (§3) 24 hours after incubation under experimental conditions, media was removed from the wells, and total RNA was purified from each sample using QIAGEN RNeasy® Mini columns. The manipulations which were then performed on the total RNA samples were as outlined in The Affymetrix® GeneChip® Expression Analysis technical manual, sections 2, chapter 1, entitled Eukaryotic Target Preparation. Briefly, RNA was reverse transcribed into double stranded cDNA with an oligo dT primer containing a T7 promoter. The product was then purified by phenol:chloroform:isoamyl extraction and ethanol precipitation, and then used in an […] to synthesize biotin-labelled antisense cRNA (Affymetrix controls of B. subtilis genes excised from pBluescript plasmid with Xho I digestion were added at this stage to control for correct translation and biotin incorporation). The cRNA was then cleaned using QIAGEN RNeasy® Mini columns, and the resulting cRNA solution fragmented using metal-induced hydrolysis.
# Samples were prepared for hybridization with the Affymetrix murine genome chips U74AV2 according to the directions in the Affymetrix® GeneChip® Expression Analysis technical manual, sections 2, chapters 3 and 4, entitled Eukaryotic Target Hybridization and Eukaryotic Arrays: Washing Staining and Scanning. Briefly, 15 ug Fragmented cRNA was mixed with Affymetrix hybridization controls, herring sperm DNA, BSA, and concentrated hybridization buffer, boiled for 5 minutes, centrifuged at 14000×g for 5 minutes to obtain a precipitated-free solution, and hybridized with the array for 16 hours. […]
# For J774.2 cells stimulated by LPS, two lists were generated, one of mRNAs which were increased at lease 2-fold by Compounds A and/or B, and one of mRNAs which were decreased at least 2-fold by Compounds A and/or B. In the case of mRNAs which were increased, the mRNAs had to be statistically ‘Present’ in the samples which contained Compounds A and/or B (‘Present’ as determined by the Affymetrix microarray suite software).
# [1] = system: mRNAs in J774.2 and RAW264.7 cells; test: Affymetrix microarray: mRNAs up- or down-regulated by minocycline in murine macrophage cell lines; type: cell-based; conditions: 24 hours
# Method: as §1
# 1) control (J774 cells on two separate occasions, and RAW 264.7 cells)
# 2) 50 μg/ml minocycline (J774 cells on two separate occasions, and RAW 264.7 cells)
# 3) 100 ng/ml LPS (J774 cells on two separate occasions, and RAW 264.7 cells)
# 4) 50 μg/ml minocycline+100 ng/ml LPS (J774 cells on two separate occasions, and RAW 264.7 cells)
# as §2
# as §3, with “hydrolysis. […]” for “hydrolysis.”
# For both J774.2 and RAW264.7 cells, two lists were generated, one of mRNAs which were increased at lease 2-fold by minocycline, and one of mRNAs which were decreased at least 2-fold by minocycline. In the case of mRNAs which were increased, the mRNAs had to be statistically ‘Present’ in the samples which contained minocycline (‘Present’ as determined by the Affymetrix microarray suite software). […]
# For both J774.2 and RAW264.7 cells stimulated by LPS, two lists were generated, one of mRNAs which were increased at lease 2-fold by minocycline, and one of mRNAs which were decreased at least 2-fold by minocycline. In the case of mRNAs which were increased, the mRNAs had to be statistically ‘Present’ in the samples which contained minocycline (‘Present’ as determined by the Affymetrix microarray suite software).
IC50 at 24 h (in vitro) [µg/mL],SMILES,"Numbers of mRNAs with levels significantly altered by both Compounds A and B, in the presence of LPS: Decreased (mRNAs in J774.2 cells)","Numbers of mRNAs with levels significantly altered by both Compounds A and B, in the presence of LPS: Increased (mRNAs in J774.2 cells)","Numbers of mRNAs with levels significantly altered by minocycline, in the presence of LPS: Decreased ([1]; 50 μg/ml minocycline + 100 ng/ml LPS, decreased at least 2-fold, common to all three lists (J774.2 twice, RAW264.7))","Numbers of mRNAs with levels significantly altered by minocycline, in the presence of LPS: Increased ([1]; 50 μg/ml minocycline + 100 ng/ml LPS, increased at least 2-fold, common to all three lists (J774.2 twice, RAW264.7))","Numbers of mRNAs with levels significantly altered by minocycline: Decreased ([1]; 50 μg/ml minocycline, no LPS, decreased at least 2-fold, mRNAs common to all three lists (J774.2 twice, RAW264.7))","Numbers of mRNAs with levels significantly altered by minocycline: Increased ([1]; 50 μg/ml minocycline, no LPS, increased at least 2-fold, mRNAs common to all three lists (J774.2 twice, RAW264.7))"
> 25,C[C@H]1c2cccc(O)c2C(=O)C2=C(O)[C@]3(O)C(=O)C(C(N)=O)=C(O)[C@@H](N(C)C)[C@@H]3[C@@H](O)[C@@H]21 [doxycycline],–,–,–,–,–,–
–,CN(C)C1C(O)=C(C(N)=O)C(=O)[C@@]2(O)C(O)=C3C(=O)c4c(O)ccc(CNCC(C)(C)C)c4C[C@H]3C[C@@H]12 (stereo partly shown) [Compound A],108,133,–,–,–,–
> 25,CN(C)c1ccc(O)c2c1C[C@H]1C[C@H]3[C@H](N(C)C)C(O)=C(C(N)=O)C(=O)[C@@]3(O)C(O)=C1C2=O [minocycline],–,–,9,28,4,21
–,C[C@H]1c2ccc(N3CCCCC3)c(O)c2C(=O)C2=C(O)[C@]3(O)C(=O)C(C(N)=O)=C(O)C(N(C)C)[C@@H]3[C@@H](O)[C@@H]21 (stereo partly shown) [Compound B],108,133,–,–,–,–
